Measurements: patent US6403561B1, “Tripeptidylpeptidase inhibitors” (Institut National de la Sante et de la Recherche Medicale …, priority 1998, dated 2002)
Counter-ions that a name gives are not always drawn. Where a SMILES comes first, the peptide text is derived from it. [ ]: non-standard residue; d: D form. The star is where a group is joined. Oic = O=C(O)[C@@H]1C[C@@H]2CCCC[C@@H]2N1; Pro(cis-4-F) = O=C(O)[C@@H]1C[C@H](F)CN1; Tic = O=C(O)[C@@H]1Cc2ccccc2CN1; Abu = CC[C@H](N)C(=O)O; NHBu = CCCCN*; NHPr = CCCN*

system: not given; experiment: not given; conditions: not given

First: CCCCNC(=O)[C@@H]1C[C@@H]2CCCC[C@@H]2N1C(=O)[C@@H](N)CC (as salt: salt) [Example 22, 1-(2(S)-aminobutyryl)-2(S)-[(3aS,7aS)-perhydro]indolinecarboxylic Acid N-butylamide] (H-[Abu]-[Oic]-NHBu)
Second: CCCCNC(=O)[C@@H]1CCCN1C(=O)[C@@H](N)CC (as salt: oxalate) [Example 4, 1-(2(S)-amino-butyryl)-L-proline n-butylamide] (H-[Abu]-Pro-NHBu)
The melting point of the first is higher: 168 to 169 °C for the first, 165 to 167 °C for the second.

Compared with CCCCNC(=O)C1N(C(=O)[C@@H](N)CC)c2ccccc2C1(C)C.O=C(O)C(=O)O (mixture of isomers) [Example 28, 1-(2(S)-aminobutyryl)-3,3-dimethylindoline-2(R/S)-carboxylic Acid Butylamide Oxalate], CCCCNC(=O)C1Cc2c(OC)cccc2N1C(=O)[C@@H](N)CC.O=C(O)C(=O)O (mixture of isomers) [Example 27, 1-(2(S)-aminobutyryl)-4-methoxyindoline-2(R/S)-carboxylic Acid Butylamide Oxalate] is lower in melting point: 127 to 133 °C for the first, 117 to 119 °C for the second.

Compared with CCCCNC(=O)[C@@H]1Cc2ccccc2CN1C(=O)[C@@H](N)CC (as salt: oxalate) [Example 13, 2-(2(S)-amino-butyryl)-1,2,3,4-tetrahydro-3(S)-isoquinolinecarboxylic Acid n-butylamide] (H-[Abu]-[Tic]-NHBu), CCCCNC(=O)C1c2ccccc2CN1C(=O)[C@@H](N)CC (mixture of isomers) (as salt: oxalate) [Example 23, 2-(2(S)-aminobutyryl)-1-(R/S)-isoindolinecarboxylic Acid N-butylamide] is lower in melting point: 105 to 110 °C for the first, 90 to 92 °C for the second.

First: CC[C@H](N)C(=O)N1CCC[C@H]1C(=O)NCC(C)C (as salt: trifluoroacetate) [Example 7, 1-(2(S)-amino-butyryl)-L-proline isobutylamide]
Second: CC[C@H](C)CNC(=O)[C@@H]1CCCN1C(=O)[C@@H](N)CC (as salt: oxalate) [Example 5, 1-(2(S)-aminobutyryl)-L-proline [2(S)methyl]butylamide]
The melting point of the first is lower: 58 to 61 °C for the first, 135 to 136 °C for the second.

First: CCNC(=O)[C@@H]1Cc2ccccc2N1C(=O)[C@@H](N)CC [Example 17, 1-(2(S)-aminobutyryl)-2(s)-indolinecarboxylic Acid ethylamide]
Second: CCCNC(=O)[C@@H]1Cc2ccccc2N1C(=O)[C@@H](N)CC (as salt: oxalate) (hydrate or solvate)
The melting point of the first is lower: 115 to 120 °C for the first, 130 to 131 °C for the second.

Compared with CCCCNC(=O)[C@@H]1Cc2c(OCC)cccc2N1C(=O)[C@@H](N)CC.O=C(O)C(=O)O [Example 31, 1-(2(S)-aminobutyryl)-4-ethoxyindoline-2(S)-carboxylic Acid Butylamide Oxalate], CCCCNC(=O)C1Cc2c(ccc(OC)c2OC)N1C(=O)[C@@H](N)CC.O=C(O)C(=O)O (mixture of isomers) [Example 32, 1-(2(S)-aminobutyryl)-4,5-dimethoxyindoline-2(R/S)-carboxylic Acid Butylamide Oxalate] is higher in melting point: 144.7 to 146.2 °C for the first, 196.1 to 197.5 °C for the second.

First: CCCCNC(=O)C1Cc2cc(OC)ccc2N1C(=O)[C@@H](N)C(C)C.O=C(O)C(=O)O (mixture of isomers) [Example 24, 1-(L-valyl)-5-methoxyindoline-2(R/S)-carboxylic Acid Butylamide Oxalate]
Second: CCCCNC(=O)[C@@H]1Cc2cc(OC)ccc2N1C(=O)[C@H](C)N.O=C(O)C(=O)O [Example 26, 1-(L-alanyl)-5-methoxyindoline-2(S)-carboxylic Butylamide Oxalate]
The melting point of the first is lower: 112 to 120 °C for the first, 141 to 143 °C for the second.

Compared with CCCCCNC(=O)[C@@H]1CCCN1C(=O)[C@@H](N)CC (as salt: oxalate) [Example 3, 1-(2(S)-aminobutyryl)-L-proline n-pentylamide], CCCNC(=O)[C@@H]1CCCN1C(=O)[C@@H](N)CC (as salt: trifluoroacetate) [Example 6, 1-(2(S)-amino-butyryl)-L-proline n-propylamide] (H-[Abu]-Pro-NHPr) is lower in melting point: 140 to 141 °C for the first, 46 to 51 °C for the second.

First: CCCCNC(=O)C1Cc2cc(F)ccc2N1C(=O)[C@@H](N)CC (mixture of isomers) (as salt: oxalate) [Example 20, 1-(2(S)-aminobutyryl)-2(R/S)-(5-fluoro)indolinecarboxylic Acid N-butylamide]
Second: CCCCNC(=O)C1Cc2cc(OC)ccc2N1C(=O)[C@@H](N)CC (mixture of isomers) (as salt: oxalate) [Example 18, 1-(2(S)-amino-butyryl)-2(R/S)-(5-methoxy)indolinecarboxylic Acid n-butylamide]
The melting point of the first is higher: 105 to 110 °C for the first, 95 to 105 °C for the second.

First: CC[C@H](N)C(=O)N1CCC[C@H]1C(=O)NCCCSC (as salt: oxalate) [Example 2, 1-(2(S)-amino-butyryl)-L-proline 3-(methylthio)propylamide]
Second: CCCCNC(=O)[C@@H]1CCCN1C(=O)[C@@H](N)C(C)C (as salt: oxalate) [Example 8, L-valyl-L-proline n-butylamide] (H-Val-Pro-NHBu)
The melting point of the first is lower: 120 to 121 °C for the first, 165 to 166 °C for the second.

First: CCCCNC(=O)C1Cc2cc(O)ccc2N1C(=O)[C@@H](N)CC.O=C(O)C(=O)O (mixture of isomers) [Example 34, 1-2(S)-aminobutyryl-5-hydroxyindoline-2(R/S)-carboxylic Acid Butylamide Oxalate]
Second: CCCCNC(=O)[C@@H]1Cc2cc(O)ccc2N1C(=O)[C@@H](N)CC.O=C(O)C(=O)O [Example 33, 1-(2(S)-aminobutyryl)-5-hydroxyindoline-2(S)-carboxylic Acid Butylamide Oxalate]
The melting point of the first is lower: 129 to 130 °C for the first, 156.5 to 158 °C for the second.

First: CCCCCCNC(=O)[C@@H]1CCCN1C(=O)[C@@H](N)C(C)C (as salt: oxalate) [Example 1, L-valyl-L-proline n-hexylamide]
Second: CCCCNC(=O)C1Cc2cc(C)ccc2N1C(=O)[C@@H](N)CC.O=C(O)C(=O)O (mixture of isomers) [Example 35, 1-2(S)-aminobutyryl-5-methylindoline-2(R/S)-carboxylic Acid Butylamide Oxalate]
The melting point of the first is higher: 146 to 147 °C for the first, 110 to 112 °C for the second.

First: CCCCNC(=O)[C@@H]1Cc2cc(Cl)ccc2N1C(=O)[C@@H](N)CC.O=C(O)C(F)(F)F [Example 36, 1-(2(S)-aminobutyryl)-5-chloroindoline-2(S)-carboxylic Acid Butylamide Trifluoroacetate]
Second: CCCCNC(=O)C1Cc2cc(OC)ccc2N1C(=O)[C@H](C)N.O=C(O)C(=O)O (mixture of isomers) [Example 25, 1-(L-alanyl)-5-methoxyindoline-2(R/S)-carboxylic Acid Butylamide Oxalate]
The melting point of the first is lower: 83 to 84 °C for the first, 112 to 118 °C for the second.

For CC[C@H](N)C(=O)N1c2ccccc2C[C@H]1C(=O)NC (as salt: oxalate) (hydrate or solvate) [Example 16, 1-(2(S)-aminobutyryl)-2(S)-indolinecarboxylic Acid methylamide], the melting point was 138 to 139 °C.

molecular target: membrane-bound tripeptidylpeptidase II (Rattus norvegicus, UniProt Q64560); experiment: Measurement of the activity of membrane-bound tripeptidylpeptidase (release of Amc from A-AP-Amc, fluorimetry); conditions: Ki, apparent dissociation constant calculated from the 50% inhibitory concentration and the KM of the substrate (23 μM); rat brain membranes, 50 μM A-AP-Amc
Sequence (Q64560 whole entry): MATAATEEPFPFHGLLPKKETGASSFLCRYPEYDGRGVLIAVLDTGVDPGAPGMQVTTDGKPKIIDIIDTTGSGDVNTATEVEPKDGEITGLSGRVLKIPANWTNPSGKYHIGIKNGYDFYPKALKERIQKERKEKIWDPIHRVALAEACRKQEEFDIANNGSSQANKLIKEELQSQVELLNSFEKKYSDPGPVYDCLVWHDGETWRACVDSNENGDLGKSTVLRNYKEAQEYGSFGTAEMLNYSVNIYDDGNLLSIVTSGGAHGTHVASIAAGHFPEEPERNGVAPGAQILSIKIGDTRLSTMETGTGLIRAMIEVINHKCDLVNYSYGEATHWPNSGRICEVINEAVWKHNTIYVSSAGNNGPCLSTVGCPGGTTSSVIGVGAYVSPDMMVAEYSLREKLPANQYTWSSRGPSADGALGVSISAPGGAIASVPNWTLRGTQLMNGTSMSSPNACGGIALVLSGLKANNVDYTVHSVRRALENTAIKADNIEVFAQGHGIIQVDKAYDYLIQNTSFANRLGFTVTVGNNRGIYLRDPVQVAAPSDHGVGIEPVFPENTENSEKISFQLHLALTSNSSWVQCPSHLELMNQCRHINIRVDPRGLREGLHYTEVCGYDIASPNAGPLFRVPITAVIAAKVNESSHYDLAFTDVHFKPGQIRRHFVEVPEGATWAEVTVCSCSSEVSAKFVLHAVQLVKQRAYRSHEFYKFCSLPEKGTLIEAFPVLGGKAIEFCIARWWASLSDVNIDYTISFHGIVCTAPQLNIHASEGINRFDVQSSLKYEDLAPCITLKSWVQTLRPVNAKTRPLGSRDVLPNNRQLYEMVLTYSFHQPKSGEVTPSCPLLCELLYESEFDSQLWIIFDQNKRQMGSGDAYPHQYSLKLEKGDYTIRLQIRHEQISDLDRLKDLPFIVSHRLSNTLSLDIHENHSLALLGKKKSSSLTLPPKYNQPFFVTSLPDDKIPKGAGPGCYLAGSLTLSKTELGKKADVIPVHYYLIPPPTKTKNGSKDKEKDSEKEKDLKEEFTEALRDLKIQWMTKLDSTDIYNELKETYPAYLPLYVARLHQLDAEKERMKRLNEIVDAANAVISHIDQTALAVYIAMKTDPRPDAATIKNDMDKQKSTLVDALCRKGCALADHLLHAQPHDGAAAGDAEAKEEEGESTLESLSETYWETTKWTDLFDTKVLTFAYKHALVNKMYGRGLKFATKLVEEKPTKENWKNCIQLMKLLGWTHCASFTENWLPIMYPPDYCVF
Description: Membranes from rat brain were obtained by centrifugation (200,000×g min) of a homogenate prepared in 10 volumes of 50 mM potassium phosphate buffer, pH 7.4.
After washing thoroughly, the centrifugation pellet is taken up in the buffer containing 10% glycerol and 0.1% Brij 35 in order to obtain a concentration of 25 mg of proteins/ml.
The release of Amc is evaluated by fluorimetry.

Going from CCCCNC(=O)[C@@H]1Cc2c(OCC)cccc2N1C(=O)[C@@H](N)CC.O=C(O)C(=O)O [Example 31, 1-(2(S)-aminobutyryl)-4-ethoxyindoline-2(S)-carboxylic Acid Butylamide Oxalate] to CCCCNC(=O)[C@@H]1Cc2cc(O)ccc2N1C(=O)[C@@H](N)CC.O=C(O)C(=O)O [Example 33, 1-(2(S)-aminobutyryl)-5-hydroxyindoline-2(S)-carboxylic Acid Butylamide Oxalate], the Ki falls from 29 nM to 6.6 nM (4.4-fold). The second binds more tightly here.

First: CCCCNC(=O)C1Cc2c(ccc(OC)c2OC)N1C(=O)[C@@H](N)CC (mixture of isomers) [Example 32, 1-(2(S)-aminobutyryl)-4,5-dimethoxyindoline-2(R/S)-carboxylic Acid Butylamide Oxalate]
Second: CCCCNC(=O)[C@@H]1Cc2cc(OC)ccc2N1C(=O)[C@@H](N)CC [18 (S,S) isomer]
The Ki of the first is 1.6-fold higher: 9.6 nM for the first, 6 nM for the second. The second binds more tightly here.

Compared with CCCCNC(=O)[C@@H]1C[C@H](F)CN1C(=O)[C@@H](N)CC [Example 11, 1-(2(S)-amino-butyryl)-(4(S)-fluoro)-L-proline n-butylamide] (H-[Abu]-[Pro(cis-4-F)]-NHBu), CCCCNC(=O)C1c2ccccc2CN1C(=O)[C@@H](N)CC (mixture of isomers) [Example 23, 2-(2(S)-aminobutyryl)-1-(R/S)-isoindolinecarboxylic Acid N-butylamide] is 2.2-fold lower in Ki: 320 nM for the first, 143 nM for the second.

Compared with CCCCNC(=O)C1Cc2cc(OC)ccc2N1C(=O)[C@@H](N)C(C)C (mixture of isomers) [Example 24, 1-(L-valyl)-5-methoxyindoline-2(R/S)-carboxylic Acid Butylamide Oxalate], CCCCNC(=O)[C@H]1Cc2cc(OC)ccc2N1C(=O)[C@@H](N)CC [18 (S,R) isomer] is 1.7-fold higher in Ki: 146 nM for the first, 241 nM for the second.

First: CCCCNC(=O)[C@@H]1Cc2cc(OC)ccc2N1C(=O)[C@H](C)N.O=C(O)C(=O)O [Example 26, 1-(L-alanyl)-5-methoxyindoline-2(S)-carboxylic Butylamide Oxalate]
Second: CCCCNC(=O)C1Cc2ccc(OC)cc2N1C(=O)[C@@H](N)CC (mixture of isomers) [Example 19, 1-(2(S)-aminobutyryl)-2(R/S)-(6-methoxy)indolinecarboxylic acid n-butylamide]
The Ki of the first is 10-fold lower: 7.5 nM for the first, 77 nM for the second. The first binds more tightly here.

Compound CCCCNC(=O)C1N(C(=O)[C@@H](N)CC)c2ccccc2C1(C)C (mixture of isomers) [Example 28, 1-(2(S)-aminobutyryl)-3,3-dimethylindoline-2(R/S)-carboxylic Acid Butylamide Oxalate] has a Ki of 864 nM.

same assay, conditions: apparent dissociation constant calculated from the 50% inhibitory concentration and the KM of the substrate (23 μM); rat brain membranes, 50 μM A-AP-Amc

First: CCCCNC(=O)[C@@H]1C[C@H](Cc2ccccc2)CN1C(=O)[C@@H](N)CC [Example 12, 1-(2(S)-aminobutyryl)-(4(S)-benzyl)-L-proline n-butylamide]
Second: L-alanyl-L-prolyldifluoro-L-borovaline borohydride [Example 10]
The Ki of the first is 470-fold higher: 140 nM for the first, 0.3 nM for the second. The second binds more tightly here.
